According to PubChem BioAssay AID248 (DTP/NCI, 2004):
Values joined by “and” are separate entries in the source; they are usually repeats but may differ in a detail not shown here. Identical values can stand only once. Toxic doses and inconclusive results are not listed. No stated cut-off is given here; in the data, active means T/C of 150% or more; inactive means T/C below 125%.

System: L1210 leukemia ip in BDF1 mice, survival T/C
Test: NCI In Vivo Anticancer Drug Screen. Data for tumor model L1210 Leukemia (intraperitoneal) in B6D2F1 (BDF1) mice
Details: endpoint: mean survival time, higher = longer survival
Outline: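 Read-out is survival time, reported as the treated-group measurement over the vehicle-control measurement.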

[1] = dose: 100.0 mg/kg/injection, schedule: Q04DX002 (ip), vehicle: saline with Tween-80
[2] = dose: 400.0 mg/kg/injection, schedule: Q04DX002 (ip), vehicle: saline with Tween-80
[3] = dose: 100.0 mg/kg/injection, schedule: Q01DX001 (ip), vehicle: Klucel (hydroxypropylcellulose) (HPC)
[4] = dose: 200.0 mg/kg/injection, schedule: Q01DX001 (ip), vehicle: Klucel (hydroxypropylcellulose) (HPC)
[5] = dose: 100.0 mg/kg/injection, schedule: Q04DX003 (ip), vehicle: saline
[6] = dose: 200.0 mg/kg/injection, schedule: Q04DX003 (ip), vehicle: saline
[7] = dose: 400.0 mg/kg/injection, schedule: Q04DX003 (ip), vehicle: saline
[8] = dose: 100.0 mg/kg/injection, schedule: Q04DX002 (ip), vehicle: Klucel (hydroxypropylcellulose) (HPC)
[9] = dose: 200.0 mg/kg/injection, schedule: Q04DX002 (ip), vehicle: Klucel (hydroxypropylcellulose) (HPC)
[10] = dose: 400.0 mg/kg/injection, schedule: Q04DX002 (ip), vehicle: Klucel (hydroxypropylcellulose) (HPC)
[11] = dose: 100.0 mg/kg/injection, schedule: Q01DX001 (ip), vehicle: saline
[12] = dose: 200.0 mg/kg/injection, schedule: Q01DX001 (ip), vehicle: saline
[13] = dose: 50.0 mg/kg/injection, schedule: Q01DX009 (ip), vehicle: Klucel (hydroxypropylcellulose) (HPC)
[14] = dose: 100.0 mg/kg/injection, schedule: Q01DX009 (ip), vehicle: Klucel (hydroxypropylcellulose) (HPC)
[15] = dose: 200.0 mg/kg/injection, schedule: Q01DX009 (ip), vehicle: Klucel (hydroxypropylcellulose) (HPC)

Measured: T/C

CC(C)CCCC(C)C1CCC2C3CC=C4CC(=O)CCC4(C)C3CCC12C (configuration not stated)
inactive: [1] 98 % of control | [2] 88 % of control

CN(C(=O)C1(C)CC2C=CC1C2)c1ccccc1 (configuration not stated)
inactive: [3] 100 % of control | [4] 102 % of control | dose: 400.0 mg/kg/injection, schedule: Q01DX001 (ip), vehicle: Klucel (hydroxypropylcellulose) (HPC) 97 % of control

Cn1ccc(=O)c2cc([N+](=O)[O-])ccc21
inactive: dose: 25.0 mg/kg/injection, schedule: Q01DX009 (ip), vehicle: water 90 % of control | dose: 50.0 mg/kg/injection, schedule: Q01DX009 (ip), vehicle: water 93 % of control | dose: 100.0 mg/kg/injection, schedule: Q01DX009 (ip), vehicle: water 86 % of control | [1] 104 % of control and 106 % of control | dose: 100.0 mg/kg/injection, schedule: Q04DX003 (ip), vehicle: saline with Tween-80 115 % of control and 90 % of control | dose: 200.0 mg/kg/injection, schedule: Q01DX009 (ip), vehicle: water 95 % of control | dose: 200.0 mg/kg/injection, schedule: Q04DX002 (ip), vehicle: saline with Tween-80 109 % of control and 87 % of control | dose: 200.0 mg/kg/injection, schedule: Q04DX003 (ip), vehicle: saline with Tween-80 97 % of control and 102 % of control | [2] 87 % of control and 88 % of control | dose: 400.0 mg/kg/injection, schedule: Q04DX003 (ip), vehicle: saline with Tween-80 88 % of control

COc1ccc(/C=N/NC(=O)c2ccccc2OC)cc1
inactive: dose: 100.0 mg/kg/injection, schedule: Q01DX009 (ip), vehicle: saline 108 % of control | [5] 108 % of control | dose: 130.0 mg/kg/injection, schedule: Q01DX009 (ip), vehicle: saline 104 % of control | dose: 200.0 mg/kg/injection, schedule: Q01DX009 (ip), vehicle: saline 92 % of control | [6] 102 % of control | dose: 300.0 mg/kg/injection, schedule: Q01DX009 (ip), vehicle: saline 92 % of control | dose: 400.0 mg/kg/injection, schedule: Q01DX009 (ip), vehicle: saline 114 % of control | [7] 102 % of control

C[N+](C)(C)C12CCC(CC1)C1([N+](C)(C)C)CCC2CC1
inactive: [8] 109 % of control | [9] 113 % of control | [10] 117 % of control

COc1ccccc1/C=C(\SS/C(=C/c1ccccc1OC)C(=O)O)C(=O)O
inactive: [11] 120 % of control | [12] 91 % of control

CCC[CH2][Sn]([CH2]C)([CH2]C)[CH2]C
inactive: dose: 100.0 mg/kg/injection, schedule: Q04DX002 (ip), vehicle: saline 96 % of control | dose: 200.0 mg/kg/injection, schedule: Q04DX002 (ip), vehicle: saline 101 % of control

NC(=O)c1ncc(-c2ccc(Cl)cc2)[nH]c1=O
inactive: dose: 100.0 mg/kg/injection, schedule: Q01DX009 (ip), vehicle: saline with Tween-80 91 % of control | dose: 200.0 mg/kg/injection, schedule: Q01DX009 (ip), vehicle: saline with Tween-80 97 % of control | dose: 400.0 mg/kg/injection, schedule: Q01DX009 (ip), vehicle: saline with Tween-80 97 % of control

COc1c2ccoc2nc2c(OC)c(OCC(O)C(C)(C)O)ccc12 (configuration not stated)
inactive: dose: 50.0 mg/kg/injection, schedule: Q01DX Z (ip), vehicle: carboxymethylcellulose (CMC) 97 % of control | dose: 100.0 mg/kg/injection, schedule: Q01DX Z (ip), vehicle: carboxymethylcellulose (CMC) 100 % of control

CCc1nc(=O)c2ccccc2n1C
inactive: dose: 1.5 mg/kg/injection, schedule: Q01DX001 (ip), vehicle: saline 100 % of control | dose: 3.0 mg/kg/injection, schedule: Q01DX001 (ip), vehicle: saline 95 % of control | dose: 6.0 mg/kg/injection, schedule: Q01DX001 (ip), vehicle: saline 107 % of control

CC(=O)NCCC(C)C
inactive: [5] 98 % of control | [6] 98 % of control | [7] 95 % of control

CC1=Nc2ccccc2/C1=C\c1c(C)[nH]c2ccccc12
inactive: dose: 25.0 mg/kg/injection, schedule: Q01DX009 (ip), vehicle: Klucel (hydroxypropylcellulose) (HPC) 97 % of control | [13] 97 % of control | dose: 50.0 mg/kg/injection, schedule: Q01DX009 (ip), vehicle: acetone 101 % of control | [11] 96 % of control | [14] 97 % of control | dose: 100.0 mg/kg/injection, schedule: Q04DX003 (ip), vehicle: acetone 96 % of control | [12] 101 % of control | [15] 97 % of control | dose: 200.0 mg/kg/injection, schedule: Q04DX003 (ip), vehicle: acetone 99 % of control | dose: 400.0 mg/kg/injection, schedule: Q01DX001 (ip), vehicle: saline 104 % of control

O=C(O)/C=C\Cc1cccc(=O)[nH]1
inactive: dose: 50.0 mg/kg/injection, schedule: Q01DX001 (ip), vehicle: Klucel (hydroxypropylcellulose) (HPC) 94 % of control | [3] 95 % of control | [4] 97 % of control

Cn1c(N)c(C(C[N+](=O)[O-])c2ccccc2)c(=O)n(C)c1=O (configuration not stated)
inactive: [13] 95 % of control | [14] 92 % of control | [15] 98 % of control

OC(Nc1ccccn1)(C(F)(F)F)C(F)(F)F
inactive: [11] 103 % of control

CCOC(=O)C1=C(C)NC(=O)NN1C(=O)OCC
inactive: dose: 50.0 mg/kg/injection, schedule: Q01DX009 (ip), vehicle: saline 113 % of control

O=C(NCCCCCCNC(=O)Nc1cccc(C(F)(F)F)c1)Nc1cccc(C(F)(F)F)c1
inactive: [14] 97 % of control | [15] 92 % of control | dose: 400.0 mg/kg/injection, schedule: Q01DX009 (ip), vehicle: Klucel (hydroxypropylcellulose) (HPC) 92 % of control

CCN(CC)CCNC(Cc1ccccc1)c1cccc(OC)c1 (configuration not stated)
inactive: dose: 100.0 mg/kg/injection, schedule: Q01DX001 (ip), vehicle: carboxymethylcellulose (CMC) 96 % of control

COc1cccc2c1C(=O)c1c(O)c3c(c(O)c1C2=O)C[C@@](O)(/C(C)=N/NS(C)(=O)=O)C[C@@H]3OC1CC(N)C(O)C(C)O1 (some centres not stated)
inactive: dose: 0.25 mg/kg/injection, schedule: Q04DX003 (ip), vehicle: water 103 % of control | dose: 0.5 mg/kg/injection, schedule: Q04DX003 (ip), vehicle: water 103 % of control | dose: 1.0 mg/kg/injection, schedule: Q04DX003 (ip), vehicle: water 103 % of control | dose: 2.0 mg/kg/injection, schedule: Q04DX003 (ip), vehicle: water 105 % of control | dose: 4.0 mg/kg/injection, schedule: Q01DX009 (ip), vehicle: water 105 % of control | dose: 4.0 mg/kg/injection, schedule: Q04DX003 (ip), vehicle: water 107 % of control | dose: 8.0 mg/kg/injection, schedule: Q01DX009 (ip), vehicle: water 113 % of control | dose: 8.0 mg/kg/injection, schedule: Q04DX003 (ip), vehicle: water 101 % of control and 113 % of control | dose: 16.0 mg/kg/injection, schedule: Q01DX009 (ip), vehicle: water 121 % of control | dose: 16.0 mg/kg/injection, schedule: Q04DX003 (ip), vehicle: water 104 % of control and 115 % of control | dose: 64.0 mg/kg/injection, schedule: Q01DX009 (ip), vehicle: water 97 % of control

O=S1(=O)CC2=C1/C=C/CCCC2
inactive: dose: 5.0 mg/kg/injection, schedule: Q04DX002 (ip), vehicle: Klucel (hydroxypropylcellulose) (HPC) 90 % of control | dose: 10.0 mg/kg/injection, schedule: Q01DX001 (ip), vehicle: saline 102 % of control | dose: 10.0 mg/kg/injection, schedule: Q04DX002 (ip), vehicle: Klucel (hydroxypropylcellulose) (HPC) 96 % of control

CSc1nsc2nnc(N)n12
inactive: dose: 75.0 mg/kg/injection, schedule: Q01DX001 (ip), vehicle: saline 89 % of control | dose: 150.0 mg/kg/injection, schedule: Q01DX001 (ip), vehicle: saline 102 % of control

Cc1ccc(S(=O)(=O)OCC2C3C=CC(C4C=CC43)C2COS(=O)(=O)c2ccc(C)cc2)cc1 (configuration not stated)
inactive: [8] 94 % of control | [9] 98 % of control | [10] 98 % of control
